Laboratory results taken from paper PMC11392244, “Characterization of a unique catechol-O-methyltransferase as a molecular drug target in parasitic filarial nematodes” (PLOS Neglected Tropical Diseases, 2024).
Several values for one entry are separate records, joined by “and”; a condition that tells them apart may be missing. Identical values can stand only once. Like-named read-outs stand apart in the source and are kept apart here.

Columns and labels:
[1] = tested on: DiMT protein; assay type: biochemical, Dirofilaria immitis
[2] = tested on: D. immitis microfilariae; test: In vitro efficacy against live D. immitis microfilariae (motility, completely immotile %); assay type: cell-based, Dirofilaria immitis; conditions: for Completely Immotile Microfilariae (%): single experiments
[3] = tested on: mammalian cells; conditions: read-out: Cytotoxicity IC50, ref Zhang et al., [30]; cited from earlier work

CO[C@@]12[C@H](COC(N)=O)C3=C(C(=O)C(C)=C(N)C3=O)N1C[C@H]1[C@@H]2N1C (stereo partly drawn) [NSC56410]
Mean Percent Inhibition ([1]; 50 µM): 18.0% and 26.7% and 20.5%
Mean Percent Inhibition, Average ([1]; 50 µM): 21.7%
Mean Percent Inhibition ([1]; 100 µM): 26.6% and 33.3% and 21.3%
Mean Percent Inhibition, Average ([1]; 100 µM): 27.1%
Mean Percent Inhibition ([1]; 150 µM): 31.0% and 35.0% and 25.0%
Mean Percent Inhibition, Average ([1]; 150 µM): 30.3%
Mean Percent Inhibition ([1]; 200 µM): 34.6% and 41.9% and 31.9%
Mean Percent Inhibition, Average ([1]; 200 µM): 36.1%
Mean Percent Inhibition ([1]; 250 µM): 41.2% and 38.8% and 51.8%
Mean Percent Inhibition, Average ([1]; 250 µM): 43.9%
Mean Percent Inhibition ([1]; 300 µM): 48.3% and 48.6% and 46.0%
Mean Percent Inhibition, Average ([1]; 300 µM): 47.6%
Mean Percent Inhibition ([1]; 350 µM): 53.8% and 59.3% and 53.7%
Mean Percent Inhibition, Average ([1]; 350 µM): 55.6%
Mean Percent Inhibition ([1]; 400 µM): 62.5% and 63.8%
Mean Percent Inhibition, Average ([1]; 400 µM): 62.9%
IC50 ([1]; read-out: IC 50 (μM ± SEM)): 300 ± 2.5 µM
Mean completely Immotile (%) ([2]; 25 µM, 0 h): 0%
Mean completely Immotile (%) ([2]; 25 µM, 24 h): 2.33%
Mean completely Immotile (%) ([2]; 25 µM, 48 h): 7.67%
Mean completely Immotile (%) ([2]; 25 µM, 72 h): 12.5%
Mean completely Immotile (%) ([2]; 25 µM, 96 h): 30.5%
Mean completely Immotile (%) ([2]; 25 µM, 120 h): 45%
Mean completely Immotile (%) ([2]; 50 µM, 0 h): 0%
Mean completely Immotile (%) ([2]; 50 µM, 24 h): 13%
Mean completely Immotile (%) ([2]; 50 µM, 48 h): 21.33%
Mean completely Immotile (%) ([2]; 50 µM, 72 h): 54.33%
Mean completely Immotile (%) ([2]; 50 µM, 96 h): 79.33%
Mean completely Immotile (%) ([2]; 50 µM, 120 h): 97.67%
Mean completely Immotile (%) ([2]; 75 µM, 0 h): 0%
Mean completely Immotile (%) ([2]; 75 µM, 24 h): 38.67%
Mean completely Immotile (%) ([2]; 75 µM, 48 h): 59.33%
Mean completely Immotile (%) ([2]; 75 µM, 72 h): 86%
Mean completely Immotile (%) ([2]; 75 µM, 96 h): 98.33%
Mean completely Immotile (%) ([2]; 75 µM, 120 h): 100%
Mean completely Immotile (%) ([2]; 100 µM, 0 h): 0%
Mean completely Immotile (%) ([2]; 100 µM, 24 h): 61%
Mean completely Immotile (%) ([2]; 100 µM, 48 h): 77.67%
Mean completely Immotile (%) ([2]; 100 µM, 72 h): 98%
Mean completely Immotile (%) ([2]; 100 µM, 96 h): 100%
Mean completely Immotile (%) ([2]; 100 µM, 120 h): 100%
EC50 ([2]; Dirofilaria immitis, 96 h, read-out: Anti-parasitic EC50 (μM), 96 h post-treatment): 32.1 µM
EC50 ([2]; read-out: Anti-parasitic EC50, 96 h post-treatment): 32.2 µM
Completely Immotile Microfilariae (%) ([2]; 25 µM, 0 h): 0%
Completely Immotile Microfilariae (%) ([2]; 25 µM, 24 h): 2% and 4% and 1%
Completely Immotile Microfilariae (%) ([2]; 25 µM, 48 h): 8% and 10% and 5%
Completely Immotile Microfilariae (%) ([2]; 25 µM, 72 h): 15% and 12.5% and 10%
Completely Immotile Microfilariae (%) ([2]; 25 µM, 96 h): 35% and 29.5% and 27%
Completely Immotile Microfilariae (%) ([2]; 25 µM, 120 h): 50% and 44% and 41%
Completely Immotile Microfilariae (%) ([2]; 50 µM, 0 h): 0%
Completely Immotile Microfilariae (%) ([2]; 50 µM, 24 h): 15% and 11.5% and 12.5%
Completely Immotile Microfilariae (%) ([2]; 50 µM, 48 h): 23% and 21% and 20%
Completely Immotile Microfilariae (%) ([2]; 50 µM, 72 h): 56% and 50% and 57%
Completely Immotile Microfilariae (%) ([2]; 50 µM, 96 h): 80% and 76% and 82%
Completely Immotile Microfilariae (%) ([2]; 50 µM, 120 h): 100% and 95% and 98%
Completely Immotile Microfilariae (%) ([2]; 75 µM, 0 h): 0%
Completely Immotile Microfilariae (%) ([2]; 75 µM, 24 h): 36% and 40%
Completely Immotile Microfilariae (%) ([2]; 75 µM, 48 h): 55% and 60% and 63%
Completely Immotile Microfilariae (%) ([2]; 75 µM, 72 h): 83% and 88% and 87%
Completely Immotile Microfilariae (%) ([2]; 75 µM, 96 h): 100% and 95%
Completely Immotile Microfilariae (%) ([2]; 75 µM, 120 h): 100%
Completely Immotile Microfilariae (%) ([2]; 100 µM, 0 h): 0%
Completely Immotile Microfilariae (%) ([2]; 100 µM, 24 h): 60% and 58% and 65%
Completely Immotile Microfilariae (%) ([2]; 100 µM, 48 h): 75% and 78% and 80%
Completely Immotile Microfilariae (%) ([2]; 100 µM, 72 h): 95% and 100% and 99%
Completely Immotile Microfilariae (%) ([2]; 100 µM, 96 h): 100%
Completely Immotile Microfilariae (%) ([2]; 100 µM, 120 h): 100%
effect on microfilariae ([2]; up to 120 h of culture): killing effect
IC50 [3]: 188 µM
